Experimental data reported in the supplement of paper PMC10307832.

Tests used:
Test in all cases: relative viability (nuclei count vs DMSO), 5 days (fraction); higher = more cells survive
[1] = compound: COc1cccc2c1C(=O)c1c(O)c3c(c(O)c1C2=O)C[C@@](O)(C(=O)CO)C[C@@H]3O[C@H]1C[C@H](N)[C@H](O)[C@H](C)O1 [Doxorubicin] + CS(=O)(=O)N1CCN(Cc2cc3nc(-c4cccc5[nH]ncc45)nc(N4CCOCC4)c3s2)CC1 [Pictilisib] (partner 1 µM)
Procedure, shortened: (§1)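 A single step with final 0.05% Triton X-100, 1% formaldehyde and 1 ug/ml Hoechst fixed the cells and stained nuclei 5 days after treatment. Lung cancer cell lines in 1536-well plates had been treated by pin tool the day after seeding with one drug alone or a fixed anchor-drug dose plus five library-drug doses (not always all listed) in √10 steps, and nuclei were counted on 4× images. Relative viability is the ratio of nuclei in treated wells to nuclei in vehicle wells, taken as the median of duplicate plates.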

[2] = compound: COc1cccc2c1C(=O)c1c(O)c3c(c(O)c1C2=O)C[C@@](O)(C(=O)CO)C[C@@H]3O[C@H]1C[C@H](N)[C@H](O)[C@H](C)O1 [Doxorubicin] + COc1cc2c(Oc3ccc(NC(=O)C4(C(=O)Nc5ccc(F)cc5)CC4)cc3F)ccnc2cc1OCCCN1CCOCC1 [Foretinib] (partner 0.25 µM)
Procedure, shortened: as §1

[3] = compound: COC1=C(C=C(C=C1)C2=CC3=NC=CN3C(=N2)NC4=C(C=CC=N4)C(=O)N)OC [BAY61-3606]
Procedure, shortened: (§2)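 Viability here means nuclei in treated wells divided by nuclei in vehicle wells, reported as the median across plates. Only plates with control CV below 25% and at least one doubling passed. Lung cancer cell lines in 1536-well plates were exposed to five √10-spaced library-drug doses for 5 days and counted from 4× Hoechst images in MetaXpress.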

[4] = compound: COc1cccc2c1C(=O)c1c(O)c3c(c(O)c1C2=O)C[C@@](O)(C(=O)CO)C[C@@H]3O[C@H]1C[C@H](N)[C@H](O)[C@H](C)O1 [Doxorubicin]
Procedure, shortened: as §2

## UMC-11
[1]; first compound 0.001 µM
  relative viability: 0.849
[1]; first compound 0.003162 µM
  relative viability: 0.927
[1]; first compound 0.01 µM
  relative viability: 0.769
[1]; first compound 0.03162 µM
  relative viability: 0.445
[1]; first compound 0.1 µM
  relative viability: 0.369
[2]; first compound 0.001 µM
  relative viability: 0.963
[2]; first compound 0.003162 µM
  relative viability: 1.02
[2]; first compound 0.01 µM
  relative viability: 1.02
[2]; first compound 0.03162 µM
  relative viability: 0.685
[2]; first compound 0.1 µM
  relative viability: 0.644
[3]; 0.02 µM
  relative viability: 1.1
[3]; 0.06325 µM
  relative viability: 1.05
[3]; 0.2 µM
  relative viability: 0.955
[3]; 0.6325 µM
  relative viability: 1.06
[3]; 2 µM
  relative viability: 0.991
[4]; 0.001 µM
  relative viability: 0.974
[4]; 0.003162 µM
  relative viability: 1.06
[4]; 0.01 µM
  relative viability: 0.913
[4]; 0.03162 µM
  relative viability: 0.692
[4]; 0.1 µM
  relative viability: 0.715
